From ChEMBL document CHEMBL4507268 (2021)

Columns and labels:
Conditions in all cases: Compound concentration 1000.0 nM
[1] = biological target: T1, Mitogen-activated protein kinase kinase kinase 5 (Homo sapiens) (UniProt Q99683)
T1 sequence (whole entry): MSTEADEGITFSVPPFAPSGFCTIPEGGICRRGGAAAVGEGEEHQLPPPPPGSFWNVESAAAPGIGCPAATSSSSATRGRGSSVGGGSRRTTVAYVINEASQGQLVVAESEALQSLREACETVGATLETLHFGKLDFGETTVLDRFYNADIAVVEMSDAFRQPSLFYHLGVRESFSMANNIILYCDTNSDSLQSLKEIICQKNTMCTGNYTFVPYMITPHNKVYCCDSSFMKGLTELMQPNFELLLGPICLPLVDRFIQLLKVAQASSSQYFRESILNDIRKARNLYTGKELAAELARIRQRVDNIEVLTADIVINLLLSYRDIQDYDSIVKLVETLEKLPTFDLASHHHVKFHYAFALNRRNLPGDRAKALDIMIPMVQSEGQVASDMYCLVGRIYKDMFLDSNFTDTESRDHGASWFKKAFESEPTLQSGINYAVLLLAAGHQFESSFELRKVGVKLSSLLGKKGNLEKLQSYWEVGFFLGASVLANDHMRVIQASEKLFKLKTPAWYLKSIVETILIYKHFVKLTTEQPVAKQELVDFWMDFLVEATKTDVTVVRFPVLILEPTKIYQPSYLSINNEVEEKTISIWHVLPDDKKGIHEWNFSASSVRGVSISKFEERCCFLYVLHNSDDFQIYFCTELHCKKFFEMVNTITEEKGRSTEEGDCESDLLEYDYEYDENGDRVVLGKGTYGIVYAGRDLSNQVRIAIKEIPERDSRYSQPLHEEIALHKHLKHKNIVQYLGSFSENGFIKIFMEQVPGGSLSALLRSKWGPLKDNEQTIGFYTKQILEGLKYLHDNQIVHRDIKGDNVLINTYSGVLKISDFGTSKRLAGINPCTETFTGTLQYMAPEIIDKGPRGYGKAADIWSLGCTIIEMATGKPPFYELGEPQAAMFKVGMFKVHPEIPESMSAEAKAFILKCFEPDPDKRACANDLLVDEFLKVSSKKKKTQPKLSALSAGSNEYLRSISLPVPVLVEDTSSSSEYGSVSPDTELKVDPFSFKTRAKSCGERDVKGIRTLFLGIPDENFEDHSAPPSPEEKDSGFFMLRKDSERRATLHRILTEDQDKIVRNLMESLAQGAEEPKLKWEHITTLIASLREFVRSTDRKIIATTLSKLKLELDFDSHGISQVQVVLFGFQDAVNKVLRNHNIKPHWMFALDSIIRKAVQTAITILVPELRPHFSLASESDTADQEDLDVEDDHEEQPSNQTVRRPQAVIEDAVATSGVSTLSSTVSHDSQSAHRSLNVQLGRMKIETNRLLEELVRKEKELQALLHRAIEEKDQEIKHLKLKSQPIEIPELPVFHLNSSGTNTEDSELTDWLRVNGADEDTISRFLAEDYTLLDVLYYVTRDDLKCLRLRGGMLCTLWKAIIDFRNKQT

[2] = biological target: Casein kinase I isoform delta (Homo sapiens) (UniProt P48730)
[3] = biological target: Serine/threonine-protein kinase PAK 2 (Homo sapiens) (UniProt Q13177)
[4] = biological target: T2, Activin receptor type-1 (Homo sapiens) (UniProt Q04771)
T2 sequence (whole entry): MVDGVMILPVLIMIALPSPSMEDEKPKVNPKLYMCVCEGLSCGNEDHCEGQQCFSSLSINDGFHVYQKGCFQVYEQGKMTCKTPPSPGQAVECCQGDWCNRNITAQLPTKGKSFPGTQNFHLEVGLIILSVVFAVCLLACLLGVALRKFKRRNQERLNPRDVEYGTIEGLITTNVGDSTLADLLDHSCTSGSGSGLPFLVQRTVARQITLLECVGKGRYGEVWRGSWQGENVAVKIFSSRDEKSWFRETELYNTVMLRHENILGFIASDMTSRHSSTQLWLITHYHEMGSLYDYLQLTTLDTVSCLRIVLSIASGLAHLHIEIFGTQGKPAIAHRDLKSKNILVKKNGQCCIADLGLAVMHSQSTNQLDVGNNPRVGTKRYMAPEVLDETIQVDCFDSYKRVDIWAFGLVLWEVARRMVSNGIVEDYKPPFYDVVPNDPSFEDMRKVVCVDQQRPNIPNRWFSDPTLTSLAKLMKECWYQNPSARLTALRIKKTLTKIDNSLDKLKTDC

[5] = biological target: Non-receptor tyrosine-protein kinase TNK1 (Homo sapiens) (UniProt Q13470)
[6] = system: Receptor-type tyrosine-protein kinase FLT3 (Homo sapiens), P36888 [R834Q]
[7] = biological target: Serine/threonine-protein kinase 38 (Homo sapiens) (UniProt Q15208)
[8] = biological target: Activin receptor type-2B (Homo sapiens) (UniProt Q13705)
[9] = biological target: Epidermal growth factor receptor (Homo sapiens) (UniProt P00533)
[10] = biological target: Serine/threonine-protein kinase N1 (Homo sapiens) (UniProt Q16512)
[11] = biological target: T3, Tyrosine-protein kinase TXK (Homo sapiens) (UniProt P42681)
T3 sequence (whole entry): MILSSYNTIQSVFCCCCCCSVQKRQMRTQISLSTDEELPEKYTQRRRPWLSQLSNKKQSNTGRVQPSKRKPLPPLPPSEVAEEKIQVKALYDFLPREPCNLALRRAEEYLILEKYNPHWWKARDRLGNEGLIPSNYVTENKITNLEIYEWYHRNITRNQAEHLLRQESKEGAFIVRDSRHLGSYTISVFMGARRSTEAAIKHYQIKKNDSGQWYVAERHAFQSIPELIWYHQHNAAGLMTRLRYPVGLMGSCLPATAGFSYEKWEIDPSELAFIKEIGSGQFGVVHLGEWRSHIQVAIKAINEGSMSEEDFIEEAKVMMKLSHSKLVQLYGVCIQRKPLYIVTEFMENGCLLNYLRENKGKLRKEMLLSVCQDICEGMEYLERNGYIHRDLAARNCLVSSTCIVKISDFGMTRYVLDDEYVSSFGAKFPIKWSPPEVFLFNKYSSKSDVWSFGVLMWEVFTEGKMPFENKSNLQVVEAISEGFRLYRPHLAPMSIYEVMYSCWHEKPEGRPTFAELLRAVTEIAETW

[12] = biological target: Activated CDC42 kinase 1 (Homo sapiens) (UniProt Q07912)
[13] = system: Tyrosine-protein kinase ABL1 (Homo sapiens), P00519 [H396P]

Measured: residual activity

Sequence of Activin receptor type-2B (Homo sapiens) (Q13705 whole entry): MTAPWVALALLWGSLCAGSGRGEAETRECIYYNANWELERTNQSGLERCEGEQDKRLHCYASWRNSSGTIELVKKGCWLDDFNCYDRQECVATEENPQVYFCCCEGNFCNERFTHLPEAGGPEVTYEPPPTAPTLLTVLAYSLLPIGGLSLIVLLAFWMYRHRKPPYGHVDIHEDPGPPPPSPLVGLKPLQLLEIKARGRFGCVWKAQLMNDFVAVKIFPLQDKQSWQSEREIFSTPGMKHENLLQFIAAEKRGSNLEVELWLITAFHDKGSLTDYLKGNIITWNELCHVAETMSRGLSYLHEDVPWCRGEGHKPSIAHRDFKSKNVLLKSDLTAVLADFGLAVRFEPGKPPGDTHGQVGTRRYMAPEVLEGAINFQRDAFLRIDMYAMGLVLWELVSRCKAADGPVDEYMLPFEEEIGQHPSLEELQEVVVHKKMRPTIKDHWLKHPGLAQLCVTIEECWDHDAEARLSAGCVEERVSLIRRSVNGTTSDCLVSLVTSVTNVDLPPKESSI
Sequence of Non-receptor tyrosine-protein kinase TNK1 (Homo sapiens) (Q13470 whole entry): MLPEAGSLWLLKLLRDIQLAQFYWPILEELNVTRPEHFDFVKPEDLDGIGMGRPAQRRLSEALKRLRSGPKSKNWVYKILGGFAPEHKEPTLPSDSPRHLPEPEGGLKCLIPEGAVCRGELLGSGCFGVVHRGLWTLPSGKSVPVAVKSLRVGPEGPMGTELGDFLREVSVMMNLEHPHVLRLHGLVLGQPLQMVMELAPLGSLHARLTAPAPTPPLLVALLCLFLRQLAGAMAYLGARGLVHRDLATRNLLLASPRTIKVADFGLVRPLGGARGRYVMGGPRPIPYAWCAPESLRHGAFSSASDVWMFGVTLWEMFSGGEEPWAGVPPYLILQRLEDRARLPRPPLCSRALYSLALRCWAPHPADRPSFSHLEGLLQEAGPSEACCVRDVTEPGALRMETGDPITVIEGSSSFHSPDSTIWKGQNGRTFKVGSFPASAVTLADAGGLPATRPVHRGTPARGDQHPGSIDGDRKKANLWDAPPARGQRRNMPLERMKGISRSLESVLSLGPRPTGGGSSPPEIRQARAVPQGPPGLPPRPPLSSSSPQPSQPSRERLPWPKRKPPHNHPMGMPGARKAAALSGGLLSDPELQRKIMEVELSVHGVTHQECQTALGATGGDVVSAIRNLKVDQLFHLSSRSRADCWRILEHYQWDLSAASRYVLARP
Sequence of Serine/threonine-protein kinase N1 (Homo sapiens) (Q16512 2-942 limits assumed): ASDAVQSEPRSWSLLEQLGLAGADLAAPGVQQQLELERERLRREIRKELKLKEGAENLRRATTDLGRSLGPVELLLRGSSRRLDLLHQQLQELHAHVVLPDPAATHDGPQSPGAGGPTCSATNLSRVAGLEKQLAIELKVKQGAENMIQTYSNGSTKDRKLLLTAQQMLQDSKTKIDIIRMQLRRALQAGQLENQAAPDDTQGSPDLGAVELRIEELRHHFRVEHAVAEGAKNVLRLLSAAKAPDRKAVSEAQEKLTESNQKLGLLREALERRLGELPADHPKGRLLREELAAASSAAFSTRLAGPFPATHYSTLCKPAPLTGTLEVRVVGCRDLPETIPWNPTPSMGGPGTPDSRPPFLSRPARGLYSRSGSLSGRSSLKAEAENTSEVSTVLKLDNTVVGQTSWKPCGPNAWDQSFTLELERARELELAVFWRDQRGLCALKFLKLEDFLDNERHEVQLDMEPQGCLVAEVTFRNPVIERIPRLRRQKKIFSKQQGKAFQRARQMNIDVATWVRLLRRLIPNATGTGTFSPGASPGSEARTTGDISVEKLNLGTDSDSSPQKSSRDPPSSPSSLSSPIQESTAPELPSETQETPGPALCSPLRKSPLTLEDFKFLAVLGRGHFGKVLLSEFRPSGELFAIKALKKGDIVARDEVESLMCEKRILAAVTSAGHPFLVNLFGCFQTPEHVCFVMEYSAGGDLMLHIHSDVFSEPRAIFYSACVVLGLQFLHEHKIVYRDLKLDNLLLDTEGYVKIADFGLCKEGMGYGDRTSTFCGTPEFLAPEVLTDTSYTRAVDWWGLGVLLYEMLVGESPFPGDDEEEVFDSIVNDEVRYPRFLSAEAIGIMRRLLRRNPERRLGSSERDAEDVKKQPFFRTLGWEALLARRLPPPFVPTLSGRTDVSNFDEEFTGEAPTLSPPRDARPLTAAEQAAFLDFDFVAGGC
Sequence of Epidermal growth factor receptor (Homo sapiens) (P00533 whole entry): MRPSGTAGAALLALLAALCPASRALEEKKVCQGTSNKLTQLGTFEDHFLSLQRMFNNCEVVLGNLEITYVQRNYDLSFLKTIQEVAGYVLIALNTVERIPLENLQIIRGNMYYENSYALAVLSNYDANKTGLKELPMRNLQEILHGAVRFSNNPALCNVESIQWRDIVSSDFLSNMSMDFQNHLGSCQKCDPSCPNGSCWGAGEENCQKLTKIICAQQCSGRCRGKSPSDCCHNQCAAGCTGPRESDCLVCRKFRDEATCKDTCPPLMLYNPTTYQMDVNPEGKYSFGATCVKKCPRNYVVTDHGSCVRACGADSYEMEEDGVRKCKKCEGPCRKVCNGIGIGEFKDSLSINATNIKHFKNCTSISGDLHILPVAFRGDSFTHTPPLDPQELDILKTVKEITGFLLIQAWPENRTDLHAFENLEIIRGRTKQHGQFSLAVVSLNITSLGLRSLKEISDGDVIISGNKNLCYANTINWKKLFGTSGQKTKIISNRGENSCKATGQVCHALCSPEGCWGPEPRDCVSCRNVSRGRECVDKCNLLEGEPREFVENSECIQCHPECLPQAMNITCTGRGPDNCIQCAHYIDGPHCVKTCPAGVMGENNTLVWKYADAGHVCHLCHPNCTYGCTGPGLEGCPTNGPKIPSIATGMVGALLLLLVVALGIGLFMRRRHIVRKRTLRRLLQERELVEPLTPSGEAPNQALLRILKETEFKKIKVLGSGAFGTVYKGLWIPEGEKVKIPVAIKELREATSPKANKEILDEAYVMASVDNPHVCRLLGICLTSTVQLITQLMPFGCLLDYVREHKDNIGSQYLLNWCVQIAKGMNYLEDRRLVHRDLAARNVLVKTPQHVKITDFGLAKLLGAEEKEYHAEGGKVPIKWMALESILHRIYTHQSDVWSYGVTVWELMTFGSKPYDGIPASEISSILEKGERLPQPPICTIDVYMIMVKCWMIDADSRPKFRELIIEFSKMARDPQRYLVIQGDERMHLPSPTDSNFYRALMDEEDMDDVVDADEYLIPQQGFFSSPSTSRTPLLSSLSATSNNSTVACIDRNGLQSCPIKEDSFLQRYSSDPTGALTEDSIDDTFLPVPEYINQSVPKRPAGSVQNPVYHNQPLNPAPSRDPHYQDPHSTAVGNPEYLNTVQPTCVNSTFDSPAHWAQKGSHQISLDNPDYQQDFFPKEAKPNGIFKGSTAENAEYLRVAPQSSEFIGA
Sequence of Serine/threonine-protein kinase PAK 2 (Homo sapiens) (Q13177 whole entry): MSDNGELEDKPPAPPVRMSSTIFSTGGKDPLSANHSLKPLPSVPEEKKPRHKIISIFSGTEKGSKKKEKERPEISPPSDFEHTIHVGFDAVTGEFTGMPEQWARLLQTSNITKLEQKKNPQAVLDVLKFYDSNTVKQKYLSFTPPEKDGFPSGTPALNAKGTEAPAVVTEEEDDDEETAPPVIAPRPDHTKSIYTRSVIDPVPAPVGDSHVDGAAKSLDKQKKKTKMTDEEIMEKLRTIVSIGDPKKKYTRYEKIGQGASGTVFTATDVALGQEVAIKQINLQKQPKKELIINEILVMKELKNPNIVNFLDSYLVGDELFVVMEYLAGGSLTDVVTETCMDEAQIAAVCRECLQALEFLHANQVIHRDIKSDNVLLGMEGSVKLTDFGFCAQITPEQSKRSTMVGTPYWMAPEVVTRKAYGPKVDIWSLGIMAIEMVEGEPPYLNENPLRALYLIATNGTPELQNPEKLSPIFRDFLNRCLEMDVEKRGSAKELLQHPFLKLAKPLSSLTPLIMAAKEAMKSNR
Sequence of Serine/threonine-protein kinase 38 (Homo sapiens) (Q15208 2-465 limits assumed): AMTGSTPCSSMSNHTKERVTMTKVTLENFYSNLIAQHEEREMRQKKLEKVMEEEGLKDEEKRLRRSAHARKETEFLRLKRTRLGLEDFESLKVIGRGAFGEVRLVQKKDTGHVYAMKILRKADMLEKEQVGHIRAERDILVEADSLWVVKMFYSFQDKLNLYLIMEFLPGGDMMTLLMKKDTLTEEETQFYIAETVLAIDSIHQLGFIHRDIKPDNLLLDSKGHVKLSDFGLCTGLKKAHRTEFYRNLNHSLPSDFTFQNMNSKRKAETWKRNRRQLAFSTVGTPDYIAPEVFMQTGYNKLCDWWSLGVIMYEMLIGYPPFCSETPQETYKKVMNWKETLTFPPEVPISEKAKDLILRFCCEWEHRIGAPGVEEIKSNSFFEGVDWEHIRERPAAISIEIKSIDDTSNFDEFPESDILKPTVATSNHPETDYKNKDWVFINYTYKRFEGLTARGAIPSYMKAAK
Sequence of Casein kinase I isoform delta (Homo sapiens) (P48730 whole entry, looked up, canonical isoform): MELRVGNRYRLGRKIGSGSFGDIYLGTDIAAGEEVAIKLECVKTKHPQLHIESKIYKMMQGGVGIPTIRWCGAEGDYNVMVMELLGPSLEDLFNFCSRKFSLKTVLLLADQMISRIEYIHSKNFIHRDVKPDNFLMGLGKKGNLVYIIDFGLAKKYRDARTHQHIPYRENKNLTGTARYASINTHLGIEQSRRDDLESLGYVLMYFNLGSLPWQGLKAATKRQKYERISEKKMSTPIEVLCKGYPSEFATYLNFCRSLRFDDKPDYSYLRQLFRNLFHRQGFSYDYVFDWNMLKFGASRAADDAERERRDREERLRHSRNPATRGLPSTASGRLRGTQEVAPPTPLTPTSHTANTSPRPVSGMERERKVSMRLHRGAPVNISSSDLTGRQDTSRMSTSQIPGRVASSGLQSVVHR

Cc1nc(C2CCN(C(=O)c3ccc(OC(F)(F)F)cc3N)CC2)c2ncc(N3CCN(C)CC3)cc2n1 [BAY-693]
inactive: [1] 99% | [2] 83% | [3] 64% | [4] 100% | [5] 100% | [6] 100% | [7] 94% | [8] 100% | [9] 86% | [10] 100% | [11] 100% | [12] 100% | [13] 78%

CN1CCN(c2cnc3c(C4CCN(C(=O)c5ccc(OC(F)(F)F)cc5N)CC4)ncnc3c2)CC1 [BAY-885]
inactive: [1] 92% | [2] 100% | [3] 100% | [4] 100% | [5] 100% | [6] 100% | [7] 80% | [8] 100% | [9] 99% | [10] 100% | [11] 88% | [12] 100% | [13] 76%
